This is an account of results in ChEMBL document CHEMBL1201862, “PubChem BioAssay data set” (2004).

Holding throughout (assay): NCI anticancer screen, dose series, 48 h
Assay [1] deals with HL-60.
Assay [2] has as its system SNB-75.
The subject of assay [3] is UACC-62.
Assay [4] deals with HCC 2998.
For assay [5], the system named is U-251.
Assay [6] has as its system SN12C.
Assay [7] deals with NCI-H460.
Assay [8] has as its system COLO 205.
Assay [9] deals with SK-MEL-5.
Assay [10] concerns Malme-3M.
The subject of assay [11] is NCI/ADR-RES.
Assay [12] relates to SR.
In assay [13] the test system is NCI-H522.
In assay [14] the test system is A498.
The test system of assay [15] is SK-MEL-2.
Assay [16] relates to UO-31.
The subject of assay [17] is HT-29.
Assay [18] concerns SF-539.
The test system of assay [19] is RPMI-8226.
Assay [20] relates to A549.

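Assay format: 96-well plates, 48-hour exposure. GI50 marks 50% less growth.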 Activity calls are given as the source filed them. Rule as the data show it: active = GI50 up to about 1.1 µM and inactive = higher. Where only a bound is given, the exact number is not on record here.

For the compound `Nc1nc(SCc2ccccc2)c2ncn(Cc3ccccc3)c2n1`, the GI50 is 4.56 µM (inactive) in [1]; 35.8 µM (inactive) in [2]; > 83 µM (inactive) in assay [3]; > 100 µM (inactive) in [4]; > 100 µM (inactive) in assay [5]; > 100 µM (inactive) in assay [6]. For the same compound, the GI50 in assay [7] is > 79.4 µM (inactive); in assay [8], > 100 µM (inactive); in assay [9], > 63 µM (inactive); in [10], > 57.9 µM (inactive); in assay [11], > 100 µM (inactive); in assay [12], > 56.9 µM (inactive). For the same compound, the GI50 in assay [13] is > 60.4 µM (inactive); in assay [14] it was > 44.9 µM (inactive); in [15] it was > 58.1 µM (inactive); in assay [16], > 100 µM (inactive); in [17] it was > 81.8 µM (inactive); in [18], > 100 µM (inactive). For the same compound, the GI50 in [19] is > 75.9 µM (inactive); in assay [20], > 96.2 µM (inactive).

Consider `CC(C)/C(Cl)=N/OC(=O)Nc1ccc(Cl)c(Cl)c1`, for which the GI50 in [1] was 1.76 µM (inactive); in [2], 19.7 µM (inactive); in assay [3] it was 13.6 µM (inactive); in assay [4], 14.9 µM (inactive); in assay [5], 21.2 µM (inactive); in assay [6], 1.91 µM (inactive). Further, the GI50 was 17 µM (inactive) in [7]; 1.83 µM (inactive) in assay [8]; 11.6 µM (inactive) in assay [9]; 2.16 µM (inactive) in assay [10]; 16.7 µM (inactive) in assay [11]; 2.49 µM (inactive) in [12]. Moreover, the GI50 in assay [13] was 1.58 µM (inactive); in [14], 18 µM (inactive); in assay [15], 18.4 µM (inactive); in assay [16], 15.3 µM (inactive); in assay [17], 5.48 µM (inactive); in [18], 13.6 µM (inactive). Also, the GI50 was 2.36 µM (inactive) in assay [19] and 21.4 µM (inactive) in assay [20].

Turning to `CC(C)(CO)NC1=C(Cl)C(=O)c2c(O)ccc(O)c2C1=O`, the GI50 in [1] is 0.233 µM (active); in assay [2], 1.31 µM (inactive); in assay [3], 1.35 µM (inactive); in [4] it was 1.43 µM (inactive); in [5] it was 1.73 µM (inactive); in [6], 1.56 µM (inactive). In addition, the GI50 in assay [7] is 2.42 µM (inactive); in [8], 1.22 µM (inactive); in assay [9] it was 1.09 µM (active); in assay [10] it was 1.87 µM (inactive); in [11], 1.88 µM (inactive); in [12], 0.267 µM (active). For the same compound, the GI50 is 0.316 µM (active) in [13]; 1.84 µM (inactive) in assay [14]; 2.32 µM (inactive) in assay [15]; 1.55 µM (inactive) in assay [16]; 1.31 µM (inactive) in assay [17]; 1.39 µM (inactive) in assay [18]. Further, the GI50 is 2.05 µM (inactive) in assay [19] and 1.86 µM (inactive) in assay [20].

As for `CC(C)(C)[Si](C)(C)OCC1OC(n2cnc3c(=O)[nH]c(N)nc32)C(O[Si](C)(C)C(C)(C)C)C1O[Si](C)(C)C(C)(C)C` (stereo not given), the GI50 is 0.849 µM (active) in assay [1]; 3.11 µM (inactive) in [2]; 1.22 µM (inactive) in assay [3]; 1.98 µM (inactive) in [4]; 1.78 µM (inactive) in [5]; 2.2 µM (inactive) in assay [6]. For the same compound, the GI50 in assay [7] was 1.32 µM (inactive); in assay [8] it was 1.72 µM (inactive); in [9], 0.594 µM (active); in assay [10], 1.88 µM (inactive); in assay [11], > 100 µM (inactive); in [12], 2.39 µM (inactive). Further, the GI50 in [13] was 1.68 µM (inactive); in [14] it was 2.39 µM (inactive); in assay [15], 0.176 µM (active); in assay [16] it was 5.11 µM (inactive); in [17], 1.8 µM (inactive); in assay [18] it was 2.17 µM (inactive). The values for the GI50 in [19] and in [20] were 1.14 µM (inactive) and 2.34 µM (inactive), respectively.

As to `COc1ccc(N2C(=O)C(=O)N(c3ccccc3[N+](=O)[O-])C2=S)cc1`, the GI50 in assay [1] was 46 µM (inactive); in assay [2] it was 27.1 µM (inactive); in [3], 17.5 µM (inactive); in assay [4], 36.1 µM (inactive); in [5], 37.8 µM (inactive); in assay [6], 37.4 µM (inactive). Moreover, the GI50 in [7] is 34.3 µM (inactive); in assay [8] it was 19.4 µM (inactive); in assay [9], 17.6 µM (inactive); in assay [10], 36.8 µM (inactive); in [11], 23.5 µM (inactive); in assay [12] it was 47.3 µM (inactive). Besides, the GI50 in assay [13] was 10.7 µM (inactive); in [14] it was 27 µM (inactive); in assay [15], 14.6 µM (inactive); in assay [16] it was 34 µM (inactive); in assay [17], 33.8 µM (inactive); in [18] it was 30.1 µM (inactive). The results for the GI50 in assay [19] and in [20] were 30.5 µM (inactive) and 38.5 µM (inactive), respectively.

With `C=C1C(=O)C23CC1C[C@H](OC(C)=O)C2C1(C)C(OC(C)=O)C[C@H](O)C(C)(C)[C@H]1C(O)[C@@H]3OC(C)=O` (stereo not given in full), the GI50 in [1] was 3.66 µM (inactive); in [2] it was 18.8 µM (inactive); in [3], 13.3 µM (inactive); in [4] it was 21.2 µM (inactive); in assay [5], 15.3 µM (inactive); in assay [6], 8.07 µM (inactive). Besides, the GI50 was 26.7 µM (inactive) in assay [7]; 4.13 µM (inactive) in assay [8]; 14.6 µM (inactive) in assay [9]; 7.01 µM (inactive) in assay [10]; > 100 µM (inactive) in assay [11]; 7.48 µM (inactive) in assay [12]. Also, the GI50 is 1.61 µM (inactive) in [13]; 15.1 µM (inactive) in assay [14]; 14.8 µM (inactive) in assay [15]; 16.9 µM (inactive) in [16]; 15.5 µM (inactive) in [17]; 2.43 µM (inactive) in assay [18]. Further, the GI50 in assay [19] is 4.27 µM (inactive); in assay [20], 22.9 µM (inactive).

For `Oc1cc(-c2cccc(Cl)c2)nc2ncccc12`, the GI50 was 0.0142 µM (active) in [1]; 0.971 µM (active) in [2]; 0.0577 µM (active) in assay [3]; 0.0771 µM (active) in assay [4]; 0.106 µM (active) in [5]; 0.141 µM (active) in assay [6]. Moreover, the GI50 in [7] was 0.0605 µM (active); in assay [8] it was 0.0782 µM (active); in assay [9], 0.0387 µM (active); in assay [10], 0.139 µM (active); in [11], 0.221 µM (active); in [12] it was 0.0378 µM (active). Moreover, the GI50 in [13] was 0.0474 µM (active); in assay [14], 0.53 µM (active); in assay [15] it was 0.197 µM (active); in assay [16], 2.52 µM (inactive); in [17], 0.0405 µM (active); in assay [18], 0.0532 µM (active). Also, the GI50 in [19] is 0.05 µM (active); in assay [20], 0.126 µM (active).
